The test system of one data set is CHIV. The data set is described as follows: microbe, parasite or virus in culture. In kind it is cell-based. As to conditions: Chikungunya virus, U2OS.
Data set [1] has as its system human monocyte-derived macrophages.
For a further data set, the system named is HIV-1. The data set is described as follows: microbe, parasite or virus in culture. The format is cell-based, human immunodeficiency virus type 1.
For another data set, the system named is RSV A2. The data set is described as follows: microbe, parasite or virus in culture. In kind it is cell-based. To be noted: human respiratory syncytial virus.

Experimental findings from publication PMC5551389 (Nature, 2016) are described below.

For orientation: EC50 means the concentration giving half of the maximal effect. In general, EC90 refers to the concentration at which the effect reaches the 90% level.

Take `CCC(CC)COC(=O)[C@H](C)N[P@](=O)(OC[C@H]1O[C@@](C#N)(c2ccc3c(N)ncnn23)[C@H](O)[C@@H]1O)Oc1ccccc1` [GS-5734]: the EC50 in the data set on CHIV (read-out: Antiviral activity EC50) is over 20 µM; with HIV-1 (Human immunodeficiency virus 1, read-out: Antiviral activity EC50), over 20 µM; with RSV A2 (HEp-2, read-out: Antiviral activity EC50), 0.019 µM. Moreover, the EC90 was over 20 µM in the data set on CHIV (read-out: Antiviral activity EC90); over 20 µM in the data set on HIV-1 (Human immunodeficiency virus 1, read-out: Antiviral activity EC90); 0.051 µM with RSV A2 (HEp-2, read-out: Antiviral activity EC90). In data set [1], the “Intracellular NTP levels, fold higher than with Nuc” value is “up to 30 fold”.
